Here are results for six compounds from US8247397B2, “Combinations of phosphoinositide 3-kinase inhibitor compounds and chemotherapeutic agents, and methods of use” (Genentech, Inc., priority 2007, dated 2012).

One may read the IC50 as the concentration that gives 50% inhibition.

One series concerns PKA. Particulars: concentrations as high as 50 μM; cited from earlier work.
Another series deals with T1, SGK (Homo sapiens, UniProt O00141).
T1 sequence (O00141 1-431): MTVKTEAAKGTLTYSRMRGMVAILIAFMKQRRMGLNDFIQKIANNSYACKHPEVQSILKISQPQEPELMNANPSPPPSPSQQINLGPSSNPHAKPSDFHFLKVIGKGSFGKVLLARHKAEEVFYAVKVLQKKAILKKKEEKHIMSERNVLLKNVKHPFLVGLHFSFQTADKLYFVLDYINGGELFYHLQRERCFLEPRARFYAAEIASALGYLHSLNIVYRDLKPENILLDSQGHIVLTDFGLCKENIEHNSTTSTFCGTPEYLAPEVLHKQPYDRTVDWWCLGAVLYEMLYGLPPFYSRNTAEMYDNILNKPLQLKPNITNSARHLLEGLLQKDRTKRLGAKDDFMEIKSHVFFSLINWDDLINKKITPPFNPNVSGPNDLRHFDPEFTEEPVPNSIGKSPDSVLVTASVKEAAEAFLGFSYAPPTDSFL
The note with it: concentrations as high as 50 μM; cited from earlier work.

For a further series, the system named is PKC. Particulars: concentrations as high as 50 μM; cited from earlier work.
The subject of series [1] is MCF-7 (PI3K mutant) breast tumor cell xenografts. In words: In vivo tumor xenograft. More on the design: species or system mouse. The note with it: after 21 days; for tumor inhibition: mB20-4.1 5 mg/kg ip twice a week 3 weeks. The method, then:
(§1) The efficacy of the combinations of the invention may be measured in vivo by implanting allografts or xenografts of cancer cells in rodents and treating the tumor-bearing animals with the combinations. Variable results are to be expected depending on the cell line, the presence or absence of certain mutations in the tumor cells, the sequence of administration of Formula I or II compound and chemotherapeutic agent, dosing regimen, and other factors. Subject mice were treated with drug(s) or control (Vehicle) and monitored over several weeks or more to measure the time to tumor doubling, log cell kill, and tumor inhibition (Example 17).
(§2) Animals suitable for transgenic experiments can be obtained from standard commercial sources. Groups of female CD-1 nude mice (Charles River Laboratory) were implanted subcutaneously in the hind flank with 20 million MDA-MB-361.1 (PI3K mutant) breast cancer cells with matrigel and 0.36 mg of estrogen implants per mouse. Groups of female NMRI nu/nu mice (Janvier) were implanted with 150 mm3 fragments of MAXF 401 (Her2+/ER+/PR^+) or MAXF 1162 (Her2+/ER+/PR^+) primary breast tumors (biopsied directly from two individual breast cancer patients) with matrigel and 0.36 mg of estrogen pellets per mouse. Groups of female HRLN nu/nu (Harlan Labs) were implanted with 10 million MCF-7 (PI3K mutant) breast cancer cells with matrigel and 0.36 mg of estrogen pellets per mouse. Groups of female athymic nu/nu mice (Charles River Laboratory) were implanted with 15 million NCI-H2122 (K-Ras mutant) non-small cell lung cancer cells and matrigel per mouse. Mouse xenografts were dosed at day 1 with drug, drug combination, or vehicle according to the schedule specified for each tumor model. Docetaxel was administered intravenously, B20-1.4 was administered intraperitonealy and Formula Ia and IIa were delivered per os by oral gavage. Tumor sizes were recorded twice weekly over the course of the study. Mouse body weights were also recorded twice weekly, and the mice were observed regularly. Tumor volume was measured in two dimensions (length and width) using Ultra Cal-IV calipers (Model 54-10-111; Fred V. Fowler Co., Inc.; Newton, Mass.) and analyzed using Excel v.11.2 (Microsoft Corporation; Redmond, Wash.). Tumor inhibition graphs were plotted using KaleidaGraph, Version 3.6 (Synergy Software; Reading, Pa.). The tumor volume was calculated with formula: Tumor size (mm^3)=(longer measurement×shorter measurement^2)×0.5
(§3) The percent tumor growth inhibition (% INH) at the end of study (EOS) was calculated using formula: % INH=100×(EOS mean volume of tumors in animals given vehicle−EOS mean volume of tumors in animals given the drug)/EOS mean volume of tumors in animals given vehicle.
(§4) Tumor incidence (TI) was determined based on the number of measurable tumors remaining in each group at the end of the study. A partial response (PR) was defined as a>50% but <100% reduction in tumor volume, compared with the starting tumor volume, observed on any day of the study. A complete response (CR) was defined as a 100% reduction in tumor volume, compared with the initial tumor volume, observed on any day of the study. Data were analyzed and p-values were determined using the Dunnett's test with JMP statistical software, version 5.1.2 (SAS Institute; Cary, N.C.). Individual tumor volumes at end of study and mean tumor volume±SEM values were calculated using JMP statistical software, version 5.1.2. Body weight data were graphed based on the mean percentage of change from initial body weights±SEM.

The test system of series [2] is MAXF 401 primary breast tumor explant xenografts. Briefly: In vivo tumor xenograft. More on the design: species or system mouse. The method, then:
as §1, §2, §3, §4

Series [3] concerns NCI-H2122 non-small cell lung cancer (NSCLC) tumor xenografts. Briefly: In vivo tumor xenograft. Also on record: species or system mouse. The note with it: erlotinib 75 mg/kg. The method, then:
as §1, §2, §3, §4

Series [4] concerns MDA-MB-361.1 breast tumor cell xenografts. Briefly: In vivo tumor xenograft. More on the design: species or system mouse. Particulars: for tumor inhibition: docetaxel 5 mg/kg iv day 1, 5, 9. The method, then: as §1, §2, §3, §4
Series [5] deals with MAXF 1162 primary breast tumor explant xenografts. Briefly: In vivo tumor xenograft. Also on record: species or system mouse. The note with it: after 49 days, docetaxel 15 mg/kg iv day 0, 11, 22, 44. The method, then:
as §1, §2, §3, §4

A short description of another series: Oral bioavailability. Particulars: in vivo.
Series [6] concerns pancreatic adenocarcinoma (PDAC) tumors. Briefly: Genetically engineered mouse model (GEMM) for pancreatic cancer. It is filed as in vivo. From the text: (§5) […]. Cancer Res. 12(18):5312-5328; US 2007/0292948, both of which are incorporated by reference in their entirety). The surprising and unexpected results from these experiments may predict the clinical response of certain patient populations having select tumor types and mutations to such combination therapy with Formula I and II compounds and chemotherapeutic agents.
A GEMM for pancreatic cancer (Aguirre et al. (2003) Genes & Development 17:3112-3126) encompasses the mutations found in a majority of patients with this disease.

Series [7] concerns small cell lung cancer (SCLC) tumors. In words: Genetically engineered mouse model (GEMM) for SCLC. Type of series: in vivo.
Description: as §5

Series [8] deals with K-ras-driven NSCLC tumors. Briefly: K-ras-driven NSCLC GEMM. It is filed as in vivo, mouse.
Description: as §5

In a further series the test system is pERK. The note with it: cited from earlier work.
Where [9] appears, read: FIG. 24, day 28, NMRI nu/nu mice, Formula Ia 100 mg/kg oral day 0-4, 11-17, 21-28, docetaxel 15 mg/kg iv day 0 and 11.
Where [10] appears, read: FIG. 24, end of the study (day 50).
Setting [11] is: FIG. 22, after 21 days, CD-1 nude mice, Formula Ia 150 mg/kg oral daily 21 days.
The mark [12] stands for this setting: FIG. 22, after 41 days, Formula Ia 150 mg/kg oral daily 21 days.
Setting [13] is: FIG. 22, after 41 days, groups of 11 (Formula Ia), 10 (docetaxel), 9 (combination) animals.
The mark [14] stands for this setting: FIG. 26, Formula Ia 100 mg/kg oral.
Where [15] appears, read: FIG. 25, day 28, Formula IIa 100 mg/kg oral day 0-3, 11-17, 21-28, docetaxel 15 mg/kg iv day 0 and 11.
Where [16] appears, read: FIG. 25, end of the study (day 50).
[17] abbreviates: FIG. 23, after 21 days, Formula IIa 37.5 mg/kg oral daily 21 days.
Where [18] appears, read: FIG. 23, after 21 days, groups of 10 animals.
Where [19] appears, read: FIG. 27, Formula IIa 100 mg/kg oral.

Consider `O=c1[nH]c2ccccc2n1C1CCN(Cc2ccc(-c3nc4cc5[nH]cnc5cc4nc3-c3ccccc3)cc2)CC1` [Akti-1/2, 1,3-dihydro-1-(1-((4-(6-phenyl-1H-imidazo[4,5-g]quinoxalin-7-yl)phenyl)methyl)-4-piperidinyl)-2H-benzimidazol-2-one], for which the inhibitory effect entry in the series on PKA, on SGK and in the series on PKC was “does not exhibit any inhibitory effect” in each case.

In the case of `CS(=O)(=O)N1CCN(Cc2cc3nc(-c4cccc5[nH]ncc45)nc(N4CCOCC4)c3s2)CC1` [Formula Ia, 4-(2-(1H-indazol-4-yl)-6-((4-(methylsulfonyl)piperazin-1-yl)methyl)thieno[3,2-d]pyrimidin-4-yl)morpholine], the partial regressions is 0 in series [1] (FIG. 30) and 3 in series [4] (setting [13]). The tumor inhibition is recorded as 36% in series [1] (FIG. 30, HRLN nu/nu mice, Formula Ia 150 mg/kg oral daily 21 days); 49% in series [2] (setting [9]); 10% in series [2] (setting [10]); 17% in series [3] (FIG. 28, after 20 days, Formula Ia 50 mg/kg, oral daily 16 days); 75% in [4] (setting [11]); 66% in series [4] (setting [12]). In addition, in [5] (setting [14]), the tumor inhibition was 54%. The oral bioavailability entry in “Oral bioavailability” is listed as “orally bioavailable”. Besides, the values for the survival entry in series [6], in series [7] and in series [8] were “modest (not statistically significant) effect on survival”, “did have an effect (significant hazard ratio) on survival” and “no effect on survival”, respectively. The “tumor growth via ultrasound” value in [6] is recorded as “initial decrease in tumor growth”. Also, the “tumor growth as assessed by microCT imaging” value in series [7] is “did not show effects on tumor growth”. In [8], the “tumor growth as measured by microCT imaging” value was “minimally affected tumor growth”.

On to “(2R,3S)-N-carboxy-3-phenylisoserine, N-tert-butyl ester, 13-ester with 5,20-epoxy-1,2,4,7,10,13-hexahydroxytax-11-en-9-one 4-acetate 2-benzoate, trihydrate [docetaxel, reference compound]”, for which the tumor inhibition is 95% in series [2] (setting [9]); 68% in series [2] (setting [10]); 95% in series [2] (setting [15]); 68% in [2] (setting [16]); 78% in series [4] (setting [11]); 26% in series [4] (setting [12]). Also, the tumor inhibition is 35% in series [4] (setting [17]), 36% in series [5] (setting [14]) and 36% in [5] (setting [19]). The results for the partial regressions in series [4] (setting [13]) and in series [4] (setting [18]) were 2 and 3, respectively.

On to `Cc1c(CN2CCN(C(=O)[C@H](C)O)CC2)sc2c(N3CCOCC3)nc(-c3cnc(N)nc3)nc12` [Formula Ib, (S)-1-(4-((2-(2-aminopyrimidin-5-yl)-7-methyl-4-morpholinothieno[3,2-d]pyrimidin-6-yl)methyl)piperazin-1-yl)-2-hydroxypropan-1-one], for which the oral bioavailability entry in “Oral bioavailability” was “orally bioavailable”.

As to `OCCn1cc(-c2ccc3c(c2)CC/C3=N\O)c(-c2ccncc2)n1` [HPPD, 5-(1-(2-hydroxyethyl)-3-(pyridin-4-yl)-1H-pyrazol-4-yl)-2,3-dihydro-1H-inden-1-one oxime], the IC50 in the series on pERK is 0.087 µM.

In the case of `CS(=O)(=O)N1CCN(Cc2cc3c(N4CCOCC4)nc(-c4cccc5[nH]ncc45)nc3s2)CC1` [Formula IIa, 4-(2-(1H-indazol-4-yl)-6-((4-(methylsulfonyl)piperazin-1-yl)methyl)thieno[2,3-d]pyrimidin-4-yl)morpholine], the partial regressions in series [1] (FIG. 31) was found to be 0; in [4] (setting [18]), 2. Also, the tumor inhibition in [1] (FIG. 31, Formula IIa 100 mg/kg oral daily 21 days) was determined as 5%; in [2] (setting [15]), 82%; in [2] (setting [16]), 51%; in [3] (FIG. 29, end of study, Formula IIa 50 mg/kg, oral daily 14 days), 27%; in series [4] (setting [17]), 30%; in [5] (setting [19]), 32%. The oral bioavailability entry in “Oral bioavailability” was “orally bioavailable”.
